The target in test [1] is ER (endogenous, MCF7 cells) (Homo sapiens (Human), UniProt P03372). Nature of the test: ER transcription assay (MCF7 cells), ERE-luciferase reporter. Format: cell-based. In outline: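 MCF7 cells (endogenous ER) transiently transfected with ERE-firefly luciferase reporter, plated in DMEM/F12 with 10% charcoal-stripped serum, then treated with compounds 24 h (0.1% DMSO final). Firefly and Renilla luciferase read; IC50 is inflection point of transcription inhibition.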
(A reporter such as luciferase makes a cellular process visible.)

The target of a further test is ERα (Homo sapiens (Human), UniProt P03372). The test is described as follows: ERα degradation (MCF7 cells), in-cell Western. To be noted: for % ERα remaining: remaining ERα protein at 10 μM ligand, relative to DMSO control; for % ERα remaining / IC50: MCF7 cells; for IC50: inflection point of the degradation in response to ligand concentration. Format: cell-based. Here is the method: ERα Degradation (MCF7 Cells)
The column titled MCF7 IC50 reports the inflection point of the inhibition of transcription in MCF7 cells as described above. Percentage ERα remaining reports the remaining ERα protein measured at 10 μM concentration of the ligand as described above. The column ERα IC50 reports the inflection point of the degradation in response to the ligand concentration.

The mark [2] stands for this setting: inflection point of the inhibition of transcription in MCF7 cells, 0.1 nM estradiol, 24 hours, read-out: MCF7 IC50.

Where two headings read alike, the source gives them in different places.

ER (endogenous, MCF7 cells), sequence (P03372 whole entry): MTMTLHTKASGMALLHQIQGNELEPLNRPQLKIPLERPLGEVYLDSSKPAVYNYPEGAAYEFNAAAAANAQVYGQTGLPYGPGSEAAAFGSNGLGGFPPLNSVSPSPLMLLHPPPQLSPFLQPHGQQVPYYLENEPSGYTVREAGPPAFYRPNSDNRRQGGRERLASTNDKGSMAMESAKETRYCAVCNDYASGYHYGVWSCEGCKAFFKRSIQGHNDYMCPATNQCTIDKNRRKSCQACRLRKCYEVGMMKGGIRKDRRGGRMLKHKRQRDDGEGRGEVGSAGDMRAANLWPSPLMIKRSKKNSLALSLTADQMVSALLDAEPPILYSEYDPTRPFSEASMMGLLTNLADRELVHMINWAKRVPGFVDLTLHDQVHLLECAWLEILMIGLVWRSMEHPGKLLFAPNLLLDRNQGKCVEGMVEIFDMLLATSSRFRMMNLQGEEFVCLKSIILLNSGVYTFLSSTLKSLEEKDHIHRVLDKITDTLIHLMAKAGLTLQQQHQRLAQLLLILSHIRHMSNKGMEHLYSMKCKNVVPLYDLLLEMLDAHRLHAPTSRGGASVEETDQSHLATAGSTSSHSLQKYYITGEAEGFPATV
ERα, sequence (P03372 whole entry): as above

As a reminder, the IC50 is the point on the concentration scale where inhibition reaches its midpoint. `CC(=O)Oc1ccc2c(Oc3ccc(/C=C/C(=O)O)cc3)c(-c3ccccc3C(C)C)sc2c1` [Example 82, (E)-3-(4-((6-acetoxy-2-(2-isopropylphenyl)benzo[b]thiophen-3-yl)oxy)phenyl)acrylic acid]: in test [1] (setting [2]), the IC50 worked out at 11 nM. Also, the “% ERα remaining” value on ERα was determined as 21%.
As to `CC(C)c1ccccc1-c1sc2cc(O)ccc2c1N(C)c1ccc(/C=C/C(=O)O)cc1` [Example 119, (E)-3-(4-((6-hydroxy-2-(2-isopropylphenyl)benzo [b]thiophen-3-yl)(methyl)amino)phenyl) acrylic acid], the IC50 in test [1] (setting [2]) amounted to 109 nM; against ERα it was 6.2 nM. For the same molecule, the “% ERα remaining” value on ERα turned out to be 19%.
In the case of `O=C(O)/C=C/c1ccc(Oc2c(-c3ccccc3C3CCCC3)sc3cc(O)ccc23)cc1` [Example 87, (E)-3-(4-((2-(2-cyclopentylphenyl)-6-hydroxybenzo[b]thiophen-3-yl)oxy)phenyl)acrylic acid], in test [1] (setting [2]), the IC50 worked out at 14 nM. For the same molecule, at ERα, the midpoint of inhibition, the IC50, lay at 0.4 nM and the “% ERα remaining” value was found to be 15%.
Consider `Cn1nnc(Cc2ccccc2-c2sc3cc(O)ccc3c2Oc2ccc(/C=C/C(=O)O)cc2)n1` [Example 96, (E)-3-(4-((6-hydroxy-2-(2-((2-methyl-2H-tetrazol-5-yl)methyl)phenyl)benzo [b]thiophen-3-yl)oxy)phenyl)acrylic acid], for which the IC50 in test [1] (setting [2]) turned out to be 212 nM; on ERα it was 1.7 nM. In addition, the “% ERα remaining” value on ERα is recorded as 14%.
In the case of `CC(=O)/C=C/c1ccc(Oc2c(-c3ccccc3C(C)C)sc3cc(O)ccc23)cc1` [Example 78, (E)-4-(4-((6-hydroxy-2-(2-isopropylphenyl)benzo[b]thiophen-3-yl)oxy)phenyl)but-3-en-2-one], the IC50 in test [1] (setting [2]) is 6 nM. The “% ERα remaining” value at ERα came to 72%.
In the same order, the values of `CC(C)c1ccccc1-c1sc2cc(O)ccc2c1Oc1ccc(/C=C/C(=O)OCCN2CCOCC2)cc1` [Example 138, (E)-2-morpholinoethyl 3-(4-((6-hydroxy-2-(2-isopropylphenyl)benzo [b]thiophen-3-yl)oxy)phenyl)acrylate] are 5.8 nM and 24%.
For the molecule `CC(C)c1cccc(-c2sc3cc(O)ccc3c2Oc2ccc(/C=C/C(=O)O)cc2)c1` [Example 98, (E)-3-(4-((6-hydroxy-2-(3-isopropylphenyl)benzo[b]thiophen-3-yl)oxy)phenyl)acrylic acid], the IC50 in test [1] (setting [2]) turned out to be 382 nM. Moreover, on ERα, the IC50 turned out to be 6.6 nM and the “% ERα remaining” value came out at 19%.
As for `Cc1nnc(/C=C/c2ccc(Oc3c(-c4ccccc4C(C)C)sc4cc(O)ccc34)cc2)[nH]1` [Example 105, (E)-2-(2-isopropylphenyl)-3-(4-(2-(5-methyl-4H-1,2,4-triazol-3-yl)vinyl)phenoxy)benzo [b]thiophen-6-ol], in test [1] (setting [2]), the IC50 came out at 14 nM. Moreover, at ERα, the IC50 turned out to be 1.1 nM and the “% ERα remaining” value is on record as 25%.
As to `Cc1ncccc1-c1sc2cc(O)ccc2c1Oc1ccc(/C=C/C(=O)O)cc1` [Example 100, (E)-3-(4-((6-hydroxy-2-(2-methylpyridin-3-yl)benzo[b]thiophen-3-yl)oxy)phenyl)acrylic acid], the results for the IC50 (in test [1] (setting [2]); against ERα) were 669 nM and 5.4 nM, respectively. Moreover, the “% ERα remaining” value on ERα worked out at 12%.
In the same order, the values of `O=C(O)/C=C/c1ccc(Oc2c(-c3ccccc3C3CC3)sc3cc(O)ccc23)cc1` [Example 127, (E)-3-(4-((2-(2-cyclopropylphenyl)-6-hydroxybenzo[b]thiophen-3-yl)oxy)phenyl)acrylic acid] are 208 nM, 4.2 nM and 16%.
With `O=C(O)c1ccc(Oc2c(-c3ccc(O)cc3)sc3cc(O)ccc23)cc1` [reference compound], the IC50 in test [1] (antagonist activity, comparison of linker length between phenyl and -C(O)OH, read-out: SERD IC50 MCF7) is 10000 nM. In addition, the “ER Percentage remaining” value on ERα (degradation potential, comparison of linker length between phenyl and -C(O)OH) is 57 Percentage.

These data come from patent US10058534B2, “Benzothiophene derivatives and compositions thereof as selective estrogen receptor degraders” (NOVARTIS AG, priority 2013, dated 2018).
